Where “and” joins values, the source holds several entries; their conditions need not be identical. Equal values may be shown once. Read-outs that look alike come from different tables or passages of the source.
Experiments:
[1] = test system: human lung carcinoma cells (A549); experiment: Cytotoxicity in A549 cells; conditions: read-out: CC50 in A549 cells; pure compounds; 72 h; highest tested 100 μM
human erythrocytes [2] = experiment: Interference with hemagglutination in the viral HA assay; conditions: pure compounds; human erythrocytes, 2 h at 4 °C
[3] = test system: Madin-Darby canine kidney (MDCK) cells; experiment: Cytotoxicity in MDCK cells; conditions: read-out: CC50 in MDCK cells; pure compounds; 72 h; highest tested 100 μM
[4] = test system: NA of S. pneumoniae DSM20566 (precipitated bacterial proteins); experiment: Hemagglutination (HA)-based NA inhibition assay, bacterial; format: biochemical, Streptococcus pneumoniae; conditions: pure compounds; total protein of DSM20566; human erythrocytes; highest tested 100 μM
From the text: Inhibition of pneumococcal NAs circumvents hemagglutination.

human erythrocytes [5] = test system: human erythrocytes
[6] = test system: human lung carcinoma cells (A549)
influenza virus A/WSN/33 = experiment: microbe, parasite or virus in culture; format: cell-based; conditions: read-out: IC50 of CPE assay (A/WSN/33)
[7] = test system: Madin-Darby canine kidney (MDCK) cells
[8] = test system: IAV Jena/8178/2009 (8178/09); experiment: microbe, parasite or virus in culture; format: cell-based, Influenza A virus; conditions: 48 h; read-out: IC50 of CPE IAV 8178/09
[9] = molecular target: influenza virus A/WSN/33 NA (Influenza A virus, UniProt P03470); experiment: biochemical; conditions: read-out: IC50 in FL assay (influenza virus A/WSN/33 NA)
Chain of influenza virus A/WSN/33 NA (P03470 whole entry, looked up): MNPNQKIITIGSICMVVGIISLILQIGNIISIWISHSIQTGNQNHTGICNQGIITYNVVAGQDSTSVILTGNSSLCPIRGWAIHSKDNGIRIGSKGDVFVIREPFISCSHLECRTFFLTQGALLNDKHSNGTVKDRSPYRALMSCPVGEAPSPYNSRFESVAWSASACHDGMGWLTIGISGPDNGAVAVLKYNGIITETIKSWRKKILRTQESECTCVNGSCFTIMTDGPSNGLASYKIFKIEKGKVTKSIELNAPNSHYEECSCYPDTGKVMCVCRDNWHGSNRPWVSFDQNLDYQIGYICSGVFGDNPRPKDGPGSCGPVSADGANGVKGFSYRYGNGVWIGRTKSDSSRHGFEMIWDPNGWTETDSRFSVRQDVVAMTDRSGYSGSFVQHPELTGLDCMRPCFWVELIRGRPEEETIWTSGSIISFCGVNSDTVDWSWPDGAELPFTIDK

Substance: sanggenon D [Compound 3]
- CC50 [1]: 79.9 ± 11.2 µM
- sample concentrations provoking induction of erythrocyte lysis in viral HA assay (human erythrocytes [2]): 31.6 to 100 µM
- sample concentrations provoking prevention of virus-induced hemagglutination in viral HA assay (human erythrocytes [2]): no
- CC50 [3]: 99 ± 8.7 µM
- MIC in HA assay against S. pneumoniae DSM20566 [4]: 31.6 µM and 31.6 ± 0.00 µM
- sample concentrations provoking induction of erythrocyte lysis in bacterial HA assay (human erythrocytes [5]): 100 µM

Substance: sanggenon G [Compound 4]
- CC50 [6]: 72.9 ± 17.2 µM
- IC50 (influenza virus A/WSN/33): 15.2 ± 14 µM
- sample concentrations provoking induction of erythrocyte lysis in viral HA assay (human erythrocytes [2]): 10 to 100 µM
- sample concentrations provoking prevention of virus-induced hemagglutination in viral HA assay (human erythrocytes [2]): 3.1 to 100 µM
- MIC in HA assay against S. pneumoniae DSM20566 [4]: 5.4 µM and 5.44 ± 3.95 µM
- CC50 [7]: > 100 µM
- IC50 [8]: 8.78 ± 0.89 µM
- sample concentrations provoking induction of erythrocyte lysis in bacterial HA assay (human erythrocytes [5]): 31.6 to 100 µM
- IC50 [9]: 61.7 ± 17.8 µM

Reference: article PMC4891693, “Discovery of prenylated flavonoids with dual activity against influenza virus and Streptococcus pneumoniae” (Scientific Reports, 2016)
